# Experimental data reported in ChEMBL document CHEMBL3822440, “Semi-synthesis and antiproliferative evaluation of PEGylated pentacyclic triterpenes” (Eur J Med Chem, 2016).
# pIC50: −log10 of the molar value.
# Columns and labels:
# [1] = system: HepG2; experiment: Cytotoxicity against human HepG2 cells assessed as growth inhibition after 72 hrs by MTT assay; type: functional, cell-based; settings: HepG2, 72 h
# [2] = system: HT-29; experiment: Cytotoxicity against human HT-29 cells assessed as growth inhibition after 72 hrs by MTT assay; type: functional, cell-based; settings: HT-29, 72 h
# [3] = system: HepG2; experiment: Potency index, ratio of oleanolic acid IC50 to compound IC50 for human HepG2 cells; type: functional
# [4] = system: HT-29; experiment: Potency index, ratio of oleanolic acid IC50 to compound IC50 for human HT-29 cells; type: functional
# [5] = system: B16-F10; experiment: Potency index, ratio of oleanolic acid IC50 to compound IC50 for mouse B16F10 cells; type: functional
# [6] = Cytotoxicity against mouse B16F10 cells assessed as growth inhibition after 72 hrs by MTT assay; type: functional, cell-based; settings: B16-F10, 72 h
# [7] = system: HepG2; experiment: Potency index, ratio of maslinic acid IC50 to compound IC50 for human HepG2 cells; type: functional
# [8] = system: HT-29; experiment: Potency index, ratio of maslinic acid IC50 to compound IC50 for human HT-29 cells; type: functional
# [9] = system: B16-F10; experiment: Potency index, ratio of maslinic acid IC50 to compound IC50 for mouse B16F10 cells; type: functional
SMILES,pIC50 [1],pIC50 [2],Ratio IC50 [3],Ratio IC50 [4],Ratio IC50 [5],pIC50 [6],Ratio IC50 [7],Ratio IC50 [8],Ratio IC50 [9]
CC1(C)CC[C@]2(C(=O)O)CC[C@]3(C)C(=CC[C@@H]4[C@@]5(C)CC[C@H](O)C(C)(C)[C@@H]5CC[C@]43C)[C@@H]2C1 [OLEANOLIC_ACID],3.67,3.37,–,–,–,–,–,–,–
CC1(C)CC[C@]2(C(=O)OCc3ccccc3)CC[C@]3(C)C(=CC[C@@H]4[C@@]5(C)CC[C@H](O)C(C)(C)[C@@H]5CC[C@]43C)[C@@H]2C1,4.41,4.17,5.5,6.4,2,–,–,–,–
CC1(C)CC[C@]2(C(=O)NCCCOCCOCCOCCCNC(=O)[C@]34CCC(C)(C)C[C@H]3C3=CC[C@@H]5[C@@]6(C)CC[C@H](O)C(C)(C)[C@@H]6CC[C@@]5(C)[C@]3(C)CC4)CC[C@]3(C)C(=CC[C@@H]4[C@@]5(C)CC[C@H](O)C(C)(C)[C@@H]5CC[C@]43C)[C@@H]2C1,4.18,4.07,3.2,5,0.9,3.91,–,–,–
"CC(=O)OC1CC[C@]2(C)[C@H]3CC=C4[C@@H]5CC(C)(C)CC[C@]5(C(=O)NCCCOCCOCCOCCCNC(=O)[C@]56CCC(C)(C)C[C@H]5C5=CC[C@@H]7[C@@]8(C)CC[C@H](OC(C)=O)C(C)(C)[C@@H]8CC[C@@]7(C)[C@]5(C)CC6)CC[C@@]4(C)[C@]3(C)CC[C@H]2C1(C)C (single isomer, unassigned)",4.61,4.08,8.7,5.2,0.9,3.92,–,–,–
CC(=O)O[C@@H]1C[C@]2(C)[C@H]3CC=C4[C@@H]5CC(C)(C)CC[C@]5(C(=O)NCCCOCCOCCOCCCN)CC[C@@]4(C)[C@]3(C)CC[C@H]2C(C)(C)[C@H]1OC(C)=O,3.75,3.88,–,–,–,3.98,0.6,0.2,0.3
COCCOCCOCC(=O)O[C@H]1CC[C@]2(C)[C@H]3CC=C4[C@@H]5CC(C)(C)CC[C@]5(C(=O)OCc5ccccc5)CC[C@@]4(C)[C@]3(C)CC[C@H]2C1(C)C,4.08,4.21,2.5,7,0.6,3.76,–,–,–
CC1(C)CC[C@]2(C(=O)OCc3ccccc3)CC[C@]3(C)C(=CC[C@@H]4[C@@]5(C)C[C@@H](O)[C@H](O)C(C)(C)[C@@H]5CC[C@]43C)[C@@H]2C1 [BENZYL MASLINATE],4.77,4.82,–,–,–,4.44,5.8,2.1,1
CC1(C)CC[C@]2(C(=O)O)CC[C@]3(C)C(=CC[C@@H]4[C@@]5(C)C[C@@H](O)[C@H](O)C(C)(C)[C@@H]5CC[C@]43C)[C@@H]2C1 [MASLINIC ACID],4.00,4.49,–,–,–,–,–,–,–
CC(=O)O[C@@H]1C[C@]2(C)[C@H]3CC=C4[C@@H]5CC(C)(C)CC[C@]5(C(=O)O)CC[C@@]4(C)[C@]3(C)CC[C@H]2C(C)(C)[C@H]1OC(C)=O,4.30,4.16,–,–,–,–,2,0.5,0.8
CC(=O)O[C@H]1CC[C@]2(C)[C@H]3CC=C4[C@@H]5CC(C)(C)CC[C@]5(C(=O)NCCCOCCOCCOCCCN)CC[C@@]4(C)[C@]3(C)CC[C@H]2C1(C)C,4.16,3.86,3.1,3.1,0.5,3.70,–,–,–
CC1(C)CC[C@]2(C(=O)NCCCOCCOCCOCCCNC(=O)[C@]34CCC(C)(C)C[C@H]3C3=CC[C@@H]5[C@@]6(C)C[C@@H](O)[C@H](O)C(C)(C)[C@@H]6CC[C@@]5(C)[C@]3(C)CC4)CC[C@]3(C)C(=CC[C@@H]4[C@@]5(C)C[C@@H](O)[C@H](O)C(C)(C)[C@@H]5CC[C@]43C)[C@@H]2C1,4.01,4.08,–,–,–,3.93,1,0.4,0.3
CC(=O)O[C@H]1CC[C@]2(C)[C@H]3CC=C4[C@@H]5CC(C)(C)CC[C@]5(C(=O)O)CC[C@@]4(C)[C@]3(C)CC[C@H]2C1(C)C [ACETYL OLEANOLIC ACID],3.98,3.83,2,2.9,1.6,–,–,–,–
CC(=O)O[C@@H]1C[C@]2(C)[C@H]3CC=C4[C@@H]5CC(C)(C)CC[C@]5(C(=O)NCCCOCCOCCOCCCNC(=O)[C@]56CCC(C)(C)C[C@H]5C5=CC[C@@H]7[C@@]8(C)C[C@@H](OC(C)=O)[C@H](OC(C)=O)C(C)(C)[C@@H]8CC[C@@]7(C)[C@]5(C)CC6)CC[C@@]4(C)[C@]3(C)CC[C@H]2C(C)(C)[C@H]1OC(C)=O,3.95,4.19,–,–,–,3.97,0.9,0.5,0.3
